Laboratory results: patent US7772241B2, “Variolin derivatives and their use as antitumor agents” (Pharma Mar S.A., priority 2001, dated 2010)

Columns and labels:
PANC-1 = assay: Inhibition of cells growth by colorimetric (SRB) assay, PANC-1; settings: for GI50 / CC50: Homo sapiens, PANC-1, 48 h; for GI50: read-out: GI50 PANC-1, SRB assay, 48 hours exposure; for CC50: read-out: LC50 PANC-1, SRB assay, 48 hours exposure; for TGI PANC-1: SRB assay, 48 hours exposure
Method in brief: (§1)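 Human tumour cells seeded at 5×10^3/well in RPMI 1640 10% FBS, attached 18 h, then exposed 48 h to samples at 10 to 10^−8 μg/ml in DMSO/EtOH/PBS (0.5:0.5:99). Growth read by SRB staining after TCA fixation, OD 490 nm, triplicate wells; GI, TGI and LC derived.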

LoVo-Dox = assay: Inhibition of cells growth by colorimetric (SRB) assay, LoVo-Dox; settings: for GI50 / CC50: Homo sapiens, 48 h; for GI50: read-out: GI50 LOVO-DOX, SRB assay, 48 hours exposure; for CC50: read-out: LC50 LOVO-DOX, SRB assay, 48 hours exposure; for TGI LOVO-DOX: SRB assay, 48 hours exposure
Method in brief: as §1

SK-MEL-28 = assay: Inhibition of cells growth by colorimetric (SRB) assay, SK-MEL-28; settings: for GI50 / CC50: Homo sapiens, SK-MEL-28, 48 h; for GI50: read-out: GI50 MEL-28, SRB assay, 48 hours exposure; for CC50: read-out: LC50 MEL-28, SRB assay, 48 hours exposure; for TGI MEL-28: SRB assay, 48 hours exposure
Method in brief: as §1

SK-BR-3 = assay: Inhibition of cells growth by colorimetric (SRB) assay, SK-BR-3; settings: for GI50 / CC50: Homo sapiens, SK-BR-3, 48 h; for GI50: read-out: GI50 SK-BR-3, SRB assay, 48 hours exposure; for CC50: read-out: LC50 SK-BR-3, SRB assay, 48 hours exposure; for TGI SK-BR-3: SRB assay, 48 hours exposure
Excerpt: The finality of these assays is to interrupt the growth of a “in vitro” tumor cell culture by means a continued exhibition of the cells to the sample to be testing.
This form of the assay employs 96 well cell culture microplates of 9 mm diameter (Faircloth, 1988; Mosmann, 1983). Most of the cell lines are obtained from American Type Culture Collection (ATCC) derived from different human cancer types.
Cells are maintained in RPMI 1640 10% FBS, supplemented with 0.1 g/l penicillin and 0.1 g/l streptomycin sulphate and then incubated at 37° C., 5% CO2 and 98% humidity. For the experiments, cells were harvested from subconfluent cultures using trypsin and resuspended in fresh medium before plating.
Cells are seeded in 96 well microtiter plates, at 5×10^3 cells per well in aliquots of 195 μl medium, and they are allowed to attach to the plate surface by growing in drug free medium for 18 hours. Afterward, samples are added in aliquots of 5 μl in a ranging from 10 to 10^−8 μg/ml, dissolved in DMSO/EtOH/PBS (0.5:0.5:99). After 48 hours exposure, the antitumor effect are measured by the SRB methodology: cells are fixed by adding 50 μl of cold 50% (wt/vol) trichloroacetic acid (TCA) and incubating for 60 minutes at 4° C. Plates are washed with deionized water and dried. One hundred μl of SRB solution (0.4% wt/vol in 1% acetic acid) is added to each microtiter well and incubated for 10 minutes at room temperature. Unbound SRB is removed by washing with 1% acetic acid. Plates are air dried and bound stain is solubilized with Tris buffer. Optical densities are read on a automated spectrophotometric plate reader at a single wavelength of 490 nm.
The values for mean +/−SD of data from triplicate wells are calculated. Some parameters for cellular responses can be calculated: GI=growth inhibition, TGI=total growth inhibition (cytostatic effect) and LC=cell killing (cytotoxic effect).

DU-145 = assay: Inhibition of cells growth by colorimetric (SRB) assay, DU-145; settings: for GI50 / CC50: Homo sapiens, DU-145, 48 h; for GI50: read-out: GI50 DU-145, SRB assay, 48 hours exposure; for CC50: read-out: LC50 DU-145, SRB assay, 48 hours exposure; for TGI DU-145: SRB assay, 48 hours exposure
Method in brief: as §1

SK-OV-3 = assay: Inhibition of cells growth by colorimetric (SRB) assay, SK-OV-3; settings: for GI50 / CC50: Homo sapiens, SK-OV-3, 48 h; for GI50: read-out: GI50 SKOV-3, SRB assay, 48 hours exposure; for CC50: read-out: LC50 SKOV-3, SRB assay, 48 hours exposure; for TGI SKOV-3: SRB assay, 48 hours exposure
Method in brief: as §1

K-562 = assay: Inhibition of cells growth by colorimetric (SRB) assay, K-562; settings: for GI50 / CC50: Homo sapiens, K562, 48 h; for GI50: read-out: GI50 K-562, SRB assay, 48 hours exposure; for CC50: read-out: LC50 K-562, SRB assay, 48 hours exposure; for TGI K-562: SRB assay, 48 hours exposure
Method in brief: as §1

HT-29 = assay: Inhibition of cells growth by colorimetric (SRB) assay, HT-29; settings: for GI50 / CC50: Homo sapiens, HT-29, 48 h; for GI50: read-out: GI50 HT-29, SRB assay, 48 hours exposure; for CC50: read-out: LC50 HT-29, SRB assay, 48 hours exposure; for TGI HT-29: SRB assay, 48 hours exposure
Method in brief: as §1

IGROV-1 = assay: Inhibition of cells growth by colorimetric (SRB) assay, IGROV-1; settings: for GI50 / CC50: Homo sapiens, IGROV-1, 48 h; for GI50: read-out: GI50 IGROV, SRB assay, 48 hours exposure; for CC50: read-out: LC50 IGROV, SRB assay, 48 hours exposure; for TGI IGROV: SRB assay, 48 hours exposure
Method in brief: as §1

IGROV-ET = assay: Inhibition of cells growth by colorimetric (SRB) assay, IGROV-ET; settings: for GI50 / CC50: Homo sapiens, 48 h; for GI50: read-out: GI50 IGROV-ET, SRB assay, 48 hours exposure; for CC50: read-out: LC50 IGROV-ET, SRB assay, 48 hours exposure; for TGI IGROV-ET: SRB assay, 48 hours exposure
Method in brief: as §1

LoVo = assay: Inhibition of cells growth by colorimetric (SRB) assay, LoVo; settings: for GI50 / CC50: Homo sapiens, LoVo, 48 h; for GI50: read-out: GI50 LOVO, SRB assay, 48 hours exposure; for CC50: read-out: LC50 LOVO, SRB assay, 48 hours exposure; for TGI LOVO: SRB assay, 48 hours exposure
Method in brief: as §1

A-549 = assay: Inhibition of cells growth by colorimetric (SRB) assay, A-549; settings: for GI50 / CC50: Homo sapiens, A549, 48 h; for GI50: read-out: GI50 A-549, SRB assay, 48 hours exposure; for CC50: read-out: LC50 A-549, SRB assay, 48 hours exposure; for TGI A-549: SRB assay, 48 hours exposure
Method in brief: as §1

LNCaP = assay: Inhibition of cells growth by colorimetric (SRB) assay, LNCaP; settings: for GI50 / CC50: Homo sapiens, LNCaP, 48 h; for GI50: read-out: GI50 LN-caP, SRB assay, 48 hours exposure; for CC50: read-out: LC50 LN-caP, SRB assay, 48 hours exposure; for TGI LN-caP: SRB assay, 48 hours exposure
Method in brief: as §1

## COc1ccc2nc3c(cc2c1)c(-c1ccnc(N)n1)c1ccnc(N)n13 [Compound 19b]
PANC-1
  GI50: 8.87 µM
  CC50: 28 µM
  TGI PANC-1: 2.80E−05
LoVo-Dox
  GI50: 7.42 µM
  CC50: 28 µM
  TGI LOVO-DOX: 2.10E−05
SK-MEL-28
  GI50: 4.92 µM
  CC50: 28 µM
  TGI MEL-28: 1.65E−05
SK-BR-3
  GI50: 1.89 µM
  CC50: 28 µM
  TGI SK-BR-3: 8.23E−06
DU-145
  GI50: 5.79 µM
  CC50: 28 µM
  TGI DU-145: 2.39E−05
SK-OV-3
  GI50: 8.28 µM
  CC50: 28 µM
  TGI SKOV-3: 1.89E−05
K-562
  GI50: 8.48 µM
  CC50: 28 µM
  TGI K-562: 1.59E−05
HT-29
  GI50: 15.2 µM
  CC50: 28 µM
  TGI HT-29: 2.80E−05
IGROV-1
  GI50: 4.11 µM
  CC50: 19.4 µM
  TGI IGROV: 8.93E−06
IGROV-ET
  GI50: 3.27 µM
  CC50: 20.4 µM
  TGI IGROV-ET: 8.17E−06
LoVo
  GI50: 3.25 µM
  CC50: 28 µM
  TGI LOVO: 1.97E−05
A-549
  GI50: 0.453 µM
  CC50: 28 µM
  TGI A-549: 2.80E−05
LNCaP
  GI50: 2.36 µM
  CC50: 27.6 µM
  TGI LN-caP: 8.59E−06

## CSc1nccc(-c2c3cccnc3n3ccccc23)n1 [Compound 55]
PANC-1
  GI50: 8.79 µM
  CC50: ≥ 34.2 µM
  TGI PANC-1: 2.91E−05
LoVo-Dox
  GI50: 3.93 µM
  CC50: 26.4 µM
  TGI LOVO-DOX: 1.02E−05
SK-MEL-28
  GI50: 11.6 µM
  CC50: ≥ 34.2 µM
  TGI MEL-28: 3.20E−05
SK-BR-3
  GI50: 8.82 µM
  CC50: ≥ 34.2 µM
  TGI SK-BR-3: 2.32E−05
DU-145
  GI50: 11.4 µM
  CC50: ≥ 34.2 µM
  TGI DU-145: 3.38E−05
SK-OV-3
  GI50: 7.73 µM
  CC50: ≥ 34.2 µM
  TGI SKOV-3: 2.09E−05
K-562
  GI50: 9.71 µM
  CC50: ≥ 34.2 µM
  TGI K-562: 1.83E−05
HT-29
  GI50: 13.2 µM
  CC50: ≥ 34.2 µM
  TGI HT-29: 3.42E−05
IGROV-1
  GI50: 7.42 µM
  CC50: ≥ 34.2 µM
  TGI IGROV: 1.53E−05
IGROV-ET
  GI50: 8.79 µM
  CC50: ≥ 34.2 µM
  TGI IGROV-ET: 2.00E−05
LoVo
  GI50: 9.92 µM
  CC50: ≥ 34.2 µM
  TGI LOVO: 3.42E−05
A-549
  GI50: 7.29 µM
  CC50: ≥ 34.2 µM
  TGI A-549: 1.90E−05
LNCaP
  GI50: 6.84 µM
  CC50: ≥ 34.2 µM
  TGI LN-caP: 1.55E−05
